Test results: US10143747B2, “Breast cancer therapeutics” (IMBA—INSTITUT FÜR MOLEKULARE BIOTECHNOLOGIE GMBH, priority 2010, dated 2018)

B1: RANKL: recombinant RANKL protein, ligand of RANK, used as stimulus (1 μg/ml or 1 μg i.p.) (protein, UniProt O35235 139-316, looked up)
Tumor necrosis factor ligand …: FSGAPAMMEGSWLDVAQRGKPEAQPFAHLTINAASIPSGSHKVTLSSWYHDRGWAKISNMTLSNGKLRVNQDGFYYLYANICFRHHETSGSVPTDYLQLMVYVVKTSIKIPSSHNLMKGGSTKNWSGNSEFHFYSINVGGFFKLRAGEEISIQVSNPSLLDPDQDATYFGAFKVQDID

Tests used:
[1] = system: mammary epithelial cells; experiment: Epithelial proliferation in mammary glands by in situ Ki67 immunostaining; format: in vivo, mouse
Procedure: a,b, Induction of RANKL expression by the progesterone-derivative MPA. Nulliparous wild type females were s.c. implanted with slow-release MPA pellets or treated with surgery sham. a, RANKL mRNA was determined in purified mammary epithelial cells by qRT-PCR three days after implantation. Data are shown as fold change compared to sham treatment (+/−sem) (n=3). b, In situ […] immunostaining of progesterone receptor (PR, red) and RANKL (green) in mammary epithelial cells after 3d MPA treatment. c, Induction of soluble RANKL protein assayed on isolated mammary gland epithelial cells from control, but not in prolactin receptor mutant (PRL-R KO) females on day 3 after s.c. MPA implantation. Mammary glands from sham operated control litter-mates and PRL-R KO females are shown as controls. d, Epithelial proliferation in mammary glands of control littermates and RANK^Δmam females 3 days after sham treatment and MPA implantation. Proliferation was determined by in situ Ki67 immunostaining. e,f, Marked increase of the stem cell-enriched CD24^+CD49^high population (MaSC) in MPA-treated mammary glands in control but not in RANK^Δmam mammary glands. e, Representative FACS profiles showing CD24 and CD49 expression of lineage negative (CD31^− (endothelial cells) CD45^− (hematopoietic cells) […] (erythroid cells)) of mammary MaSCs from MPA- or sham-treated 8-week old virgin females. f, Quantification of MaSC-enriched CD24^+CD49^high population from mammary glands of MPA- or sham-treated virgin RANK^Δmam and littermate control females. For all MaSCs experiments mice were treated with MPA for 3 days. n=4 per group+/−sem. *P<0.05; ***P<0.001 (Student's t-test).
At least 1000 mammary gland epithelial cells were counted per mouse. n=3 mice per genotype. **P<0.005; ***P<0.001 (Student's t-test). b, Quantification of in situ Ki67 immunostained cells per acinus from mammary glands of control littermate and RANK^Δmam females on day 3 after MPA s.c. implantation. […] At least 1000 cells were counted per mammary gland. n=3 per genotype. In b, and c, data are shown as percentage of acini/ducts with low (<20% of epithelial cells are Ki67^+), medium (20-80% of epithelial cells are Ki67^+) and high (>80% of epithelial cells are Ki67^+) numbers of proliferating cells+/−sem. ***P<0.001; *P<0.03 (Student's t-test). d, Epithelial proliferation in mammary glands of control littermates and RANK^Δmam females 1 day after i.p. injection of PBS or RANKL (1 μg). Proliferation was determined in situ Ki67 immunostaining. Magnifications×40. e, Quantification of epithelial proliferation 1 day after i.p. injection of PBS or RANKL (1 μg). Mean percentages of Ki67 positive cells+/−sem are shown. *P<0.03; n=5 (Student's t-test).
For histological analysis, 5 μm sections were cut and stained with hematoxylin and eosin (H&E). Whole-mount staining of mammary glands was performed as described^8. For immunoperoxidase staining paraffin-embedded sections were […] and antigenic epitopes exposed using a 10 mM citrate buffer or microwaving. […] Histomorphometric indices (proliferation and apoptosis) were calculated as the number of positive epithelial cells divided by the total number of epithelial cells, with no fewer than 1000 nuclei for Ki67 stainings and no fewer than 5000 cells for active Caspase 3 staining counted per section. […]

[2] = system: NFκB pathway / CyclinD1; experiment: NFκB pathway activation and CyclinD1 expression in mammary epithelial cells after MPA in vivo; parameters: species or system mouse; settings: three day MPA treatment, control females
Text: a, Activation of the NFκB pathway and CyclinD1 expression by MPA. Nulliparous RANK^Δmam and littermate control females were s.c. implanted with slow-release MPA pellets or treated with sham surgery. a, In situ immunostaining to detect phosphorylated (P) IκBα in mammary epithelial cells of RANK^Δmam and littermate control females after 3 d MPA treatment. b, Western blot analysis of CyclinD1 and RANKL in isolated mammary epithelial cells from RANK^Δmam and littermate control females after 3 d MPA treatment. Recombinant, murine sRANKL protein is shown for molecular size comparison. β-actin is shown as a loading control.
The human epithelial breast tumor cell line SKBR3 and primary non-transformed mouse mammary epithelial cells were left untreated or stimulated with recombinant murine RANKL^ref. 9. Adenocarcinomas were isolated from control and mutant mice and total protein lysates prepared. Western blotting was carried out using standard protocols. Briefly, blots were blocked with 5% BSA in 1×TBS 0.1% Tween-20 (TBST) for 1 hour and incubated with primary antibody overnight at 4° C. (diluted in TBST according to the manufactures protocol). […]

Row | Molecule | MPA-induced proliferation of mammary epithelial cells ([1]; RANKΔmam females, 3 days after MPA implantation) | acini with very low proliferation rates (Ki67) ([1]; RANKΔmam females, day 3 after MPA s.c. implantation) | acini with medium to high proliferation (Ki67) ([1]; control females, day 3 after MPA s.c. implantation) [%] | proliferation of mammary epithelial cells ([1]; wild type, 3 days after MPA implantation) | CyclinD1 protein expression in mammary epithelial cells [2] | nuclear phosphorylated IκBα in mammary epithelial cells [2] | proliferation of mammary gland epithelial cells ([1]; nulliparous females, 1 day after i.p. injection of RANKL (1 μg))
1 | CC(=O)O[C@]1(C(C)=O)CC[C@H]2[C@@H]3C[C@H](C)C4=CC(=O)CC[C@]4(C)[C@H]3CC[C@@]21C [MPA, medroxyprogesterone acetate] | significantly reduced | more than 60% | ~80 | triggers massive proliferation | induction of CyclinD1 protein expression | nuclear accumulation of phosphorylated IκBα | –
2 | B1 | – | – | – | – | – | – | triggered proliferation of mammary gland epithelial cells via RANK
